Usually pEC50 stands for the EC50 on a negative log10 scale, so that one unit is a factor of ten.

pEC50: −log10 of the molar value.

T1 sequence (Q5NUL3 whole entry): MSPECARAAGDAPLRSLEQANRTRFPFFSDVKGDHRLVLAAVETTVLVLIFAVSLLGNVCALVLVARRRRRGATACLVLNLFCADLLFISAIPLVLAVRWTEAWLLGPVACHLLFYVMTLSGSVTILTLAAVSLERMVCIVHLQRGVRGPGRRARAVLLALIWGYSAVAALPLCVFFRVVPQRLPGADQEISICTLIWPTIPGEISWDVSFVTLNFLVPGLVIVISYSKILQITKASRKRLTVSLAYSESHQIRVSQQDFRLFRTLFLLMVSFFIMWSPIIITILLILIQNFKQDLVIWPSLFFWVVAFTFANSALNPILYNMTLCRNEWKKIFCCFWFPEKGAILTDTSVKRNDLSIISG

The target of one test is T1, human GPR120 (Homo sapiens (Human), UniProt Q5NUL3). Put plainly: FLIPR assay: intracellular calcium in CHO cells expressing human GPR120. In kind it is cell-based. The settings on record: FLIPR calcium assay, CHO cells expressing human GPR120, agonist action. As to the method:
All compounds were tested under the FLIPR assay unless otherwise indicated.
Primers were synthesized in the domains on the opposite sides of the base sequences of the ORFs of the known GPCR and GPR120 in GenBank Accession NOs. […] The base sequences of the primers used are described below. The restriction enzymes, BamHI and EcoRI, recognition sites were introduced for subcloning, respectively.
As samples for PCR, human small intestine Marathon-ready cDNA (CLONTECH, current corporate name: TaKaRa) and cDMA obtained by reverse transcription of mouse BAT-derived RNA were used for human and mouse GPR120 receptor genes, respectively.
Using KOD Plus (TOYOBO) for PCR, 30 cycles of 94° C. for 2 minutes, 94° C. for 15 seconds, 55° C. for 30 seconds and 68° C. for 1 minute were carried out to effect reaction, followed by addition of 0.5 units of ExTaq (TaKaRa) and incubation at 72° C. for 10 minutes to carry out A-addition reaction to terminals. For mouse PCR, 35 cycles were carried out on the condition of a final DMSO concentration of 2%.
Cloning of amplified PCR products was carried out using pCR2.1-TOPO TA cloning kit (Invitrogen). For verification of base sequences, electrophoresis was carried out using BigDye Terminator Cycle Sequencing Ready Reaction Kit Ver.
The GPR120 receptor genes cloned into pCR2.1-TOPO vectors, into which the restriction enzymes, BamHI and EcoRI, recognition sites were introduced, were excised from the vectors by the enzymes and subcloned into the BamHI and EcoRI recognition sites of eukaryotic expression vector EF1/V5-His B (Invitrogen).
Test 2: Production of Expression Cells
Using Lipofectamine 2000 (Invitrogen), cDNA of GPR120 receptor was transfected into CHO/NFAT-BLA cells, and drug-resistant cells were isolated to obtain GPR120 stable expression strains. The GPR120-expressed CHO cells were cultured in DMEM/F12 medium containing 10% fetal bovine serum, 100 units/ml penicillin, 0.1 mg/ml streptomycin sulfate, 250 μg/ml Zeocin, 500 μg/mL Geneticin and 15 mM HEPES.
Test 3: Measurement of Intracellular Calcium Concentration
To the cells was added the test compound diluted with HBSS solution containing 20 mM HEPES and 2.5 mM probenecid. Variations in the intracellular calcium concentration were measured by Fluorescence Imaging Plate Reader (FLIPR; Molecular Devices) to examine the agonist action, and EC50 values were calculated. […]
On the technique in general: A change in cytosolic calcium serves as a functional read-out for many receptors and channels.
Take `Cc1cc(C)c(Cl)c(N2CCC3(CCC(CC(=O)O)CC3)CC2)c1` [Example 43]: the negative-log EC50 (pEC50) was 5.60.
On to `CCc1cc(CC)cc(N2CCC3(CCC(CC(=O)O)CC3)CC2)c1` [Example 44], for which the pEC50 is 5.59.
On to `Cc1cc(Cl)cc(N2CCC3(CCC(CC(=O)O)CC3)CC2)c1` [Example 45], for which the pEC50 was 5.93.
Same read-out and setting: with `CCc1cc(C)cc(N2CCC3(CCC(CC(=O)O)CC3)CC2)c1` [Example 46] the figure was 5.89.
On the same count and under the same terms, with `O=C(O)CC1CCC2(CC1)CCN(c1cc(OC3CCC3)ccc1Cl)CC2` [Example 47] the figure was 6.48; with `Cc1cc(OC(F)(F)F)cc(N2CCC3(CCC(CC(=O)O)CC3)CC2)c1` [Example 48], 6.42; with `COc1cc(OC(F)(F)F)cc(N2CCC3(CCC(CC(=O)O)CC3)CC2)c1` [Example 49], 6.35.
Same read-out and setting: the value for `N#Cc1cc(OC(F)(F)F)cc(N2CCC3(CCC(CC(=O)O)CC3)CC2)c1` [Example 51] was 6.21; that for `CC(C)Oc1cc(Cl)cc(N2CCC3(CCC(CC(=O)O)CC3)CC2)c1` [Example 52] was 6.19.
Take `CSc1cc(N2CCC3(CCC(CC(=O)O)CC3)CC2)cc(C(F)(F)F)c1` [Example 53]: the pEC50 was 6.18.
The same measure, in the same setting: the value for `O=C(O)CC1CCC2(CC1)CCN(c1cc(OC(F)(F)F)ccc1O)CC2` [Example 54] was 6.17; that for `O=C(O)CC1CCC2(CC1)CCN(c1cc(OC3CC3)ccc1Cl)CC2` [Example 55] was 6.06.
In the case of `CC(C)Oc1cc(OC(F)(F)F)cc(N2CCC3(CCC(CC(=O)O)CC3)CC2)c1` [Example 56], the pEC50 was 5.92.
The same measure, in the same setting: with `N#Cc1ccc(OC2CCC2)cc1N1CCC2(CCC(CC(=O)O)CC2)CC1` [Example 57] the figure was 5.88.
With `Cc1ccc(C)c(N2CCC3(CCC(CC(=O)O)CC3)CC2)c1` [Example 58], the pEC50 was 5.84.
Same read-out and setting: with `O=C(O)CC1CCC2(CC1)CCN(c1cc(OC(F)(F)F)cc(C(F)(F)F)c1)CC2` [Example 59] the figure was 5.83; with `CC(C)Oc1cc(F)cc(N2CCC3(CCC(CC(=O)O)CC3)CC2)c1` [Example 60], 5.81.
Same read-out and setting: with `O=C(O)CC1CCC2(CC1)CCN(c1cc(OC(F)F)ccc1Cl)CC2` [Example 61] the figure was 5.71.
Consider `O=C(O)CC1CCC2(CC1)CCN(c1cc(OC3CC3)ccc1F)CC2` [Example 62], for which the pEC50 was 5.67.
The same measure, in the same setting: the value for `Cc1ccc(F)c(N2CCC3(CCC(CC(=O)O)CC3)CC2)c1` [Example 63] was 5.64.
On the same count and under the same terms, with `COc1cccc(N2CCC3(CCC(CC(=O)O)CC3)CC2)c1` [Example 64] the figure was 5.62.
Regarding `Cc1ccc(C#N)cc1N1CCC2(CCC(CC(=O)O)CC2)CC1` [Example 65], the pEC50 was 5.60.
Still for that read-out and setting: the value for `Cc1cc(F)cc(N2CCC3(CCC(CC(=O)O)CC3)CC2)c1Cl` [Example 68] was 5.54; that for `CN(C)c1cccc(N2CCC3(CCC(CC(=O)O)CC3)CC2)c1` [Example 69] was 5.53.
`Cc1cccc(N2CCC3(CCC(CC(=O)O)CC3)CC2)c1` [Example 70]: the pEC50 was 5.53.
Regarding `Cc1cc(C#N)cc(N2CCC3(CCC(CC(=O)O)CC3)CC2)c1` [Example 71], the pEC50 is 5.53.
On the same count and under the same terms, with `COc1cc(C)cc(N2CCC3(CCC(CC(=O)O)CC3)CC2)c1` [Example 72] the figure was 5.51.
Consider `O=C(O)CC1CCC2(CC1)CCN(c1cc(C(F)(F)F)ccc1CO)CC2` [Example 73], for which the pEC50 was 5.50.
`COc1cc(N2CCC3(CCC(CC(=O)O)CC3)CC2)c(F)cn1` [Example 74]: the pEC50 was 5.47.
As for `COCCOc1cc(Cl)cc(N2CCC3(CCC(CC(=O)O)CC3)CC2)c1` [Example 75], the pEC50 is 5.44.
Same read-out and setting: with `O=C(O)CC1CCC2(CC1)CCN(c1ccc(-c3ccccc3)cc1)CC2` [Example 77] the figure was 5.31; with `Cc1cccnc1Oc1ccc(C#N)c(N2CCC3(CCC(CC(=O)O)CC3)CC2)c1` [Example 79], 5.18; with `COCCOc1ccc(Cl)c(N2CCC3(CCC(CC(=O)O)CC3)CC2)c1` [Example 80], 5.16.
The same measure, in the same setting: the value for `O=C(O)CCC1CCC2(CC1)CCN(c1cc(OC3CCC3)ccc1F)CC2` [Example 82, 3-(3-(5-Cyclobutoxy-2-fluorophenyl)-3-azaspiro[5.5]undecan-9-yl)propanoic acid] was 5.90; that for `O=C(O)CCCC1CCC2(CC1)CCN(c1cc(OC3CCC3)ccc1F)CC2` [Example 83, 4-(3-(5-Cyclobutoxy-2-fluorophenyl)-3-azaspiro[5.5]undecan-9-yl)butanoic acid] was 6.10; that for `O=C(O)CCC1CCC2(CC1)CCN(c1cc(OC3CCC3)ccc1Cl)CC2` [Example 84] was 5.87.
Still for that read-out and setting: the value for `O=C(O)CCC1CCC2(CC1)CCN(c1cc(OC(F)(F)F)ccc1Cl)CC2` [Example 85] was 5.75; that for `O=C(O)CCCC1CCC2(CC1)CCN(c1cc(OC(F)(F)F)ccc1Cl)CC2` [Example 86] was 5.69.
For the compound `O=C(O)CCCC1CCC2(CC1)CCN(c1cc(OC3CCC3)ccc1Cl)CC2` [Example 87], the pEC50 was 5.65.
`CC1CC(CC(=O)O)CCC12CCN(c1cc(OC(F)(F)F)ccc1Cl)CC2` (stereo not shown) [Example 89, 2-(3-(2-Chloro-5-(trifluoromethoxy)phenyl)-7-methyl-3-azaspiro[5.5]undecan-9-yl)acetic acid]: the pEC50 was 5.60.
On the same count and under the same terms, with `NCCC1CCC2(CC1)CCN(c1cc(OC(F)(F)F)ccc1Cl)CC2` [Example 90, 2-(3-(2-chloro-5-(trifluoromethoxy)phenyl)-3-azaspiro[5.5]undecan-9-yl)ethanamine] the figure was 5.25; with `O=C(O)CC1CCC2(CCN(c3cccc(OC(F)(F)F)c3)CC2)OC1` (stereo not shown) [Example 95], 5.72; with `O=C(O)CC1CCC2(CCN(c3cc(OC(F)(F)F)ccc3Cl)CC2)OC1` (stereo not shown) [Example 97], 5.89.
Same read-out and setting: the value for `O=C(O)C[C@@H]1CCC2(CCN(c3cc(OC4CCC4)ccc3Cl)CC2)OC1` [Example 98] was 5.81.
Same read-out and setting: with `O=C(O)C[C@@H]1CCC2(CCN(c3cc(OC4CCC4)ccc3F)CC2)OC1` [Example 100] the figure was 5.37; with `COc1cc(Cl)cc(N2CCC3(CC2)CC(CC(=O)O)CO3)c1` (stereo not shown) [Example 102], 5.09.

The next test concerns the target T1, human GPR120. Put plainly: IP1 assay (GPR120 assay adapted from Bergsdorf et al.). In kind it is cell-based.
Settings: not given
An excerpt:
The EC50 values for the exemplified compounds are provided in the following examples and in the following tables. • IP1 Assay • IP1 assay results were obtained adapting the GPR120 assay described in C. Bergsdorf, et al., Assay Drug Dev. Technol., 2008, 6(1), 39-53. General Schemes
`O=C(O)CCC1CCC2(CCN(c3cc(OC4CCC4)ccc3Cl)CC2)C1` (stereo not shown) [Example 105, 3-(8-(2-chloro-5-cyclobutoxyphenyl)-8-azaspiro[4.5]decan-2-yl)propanoic acid] had a pEC50 of 7.35.
As for `N#Cc1ccc(OC(F)(F)F)cc1N1CCC2(CCC(CCC(=O)O)C2)CC1` (stereo not shown) [Example 106], the pEC50 is 6.66.
On the same count and under the same terms, the value for `COc1cc(F)c(N2CCC3(CCC(CCC(=O)O)C3)CC2)cc1OC1CCC1` (stereo not shown) [Example 107] was 6.69.

Values taken from US9708270B2, “Substituted spiropiperidinyl compounds useful as GPR120 agonists” (Merck Sharp & Dohme Corp., priority 2012, dated 2017).
